The values below come from ChEMBL document CHEMBL3286253, “Design, synthesis, and structure-activity relationship studies of novel thioether pleuromutilin derivatives as potent antibacterial agents” (J Med Chem, 2014).

≈ marks a conversion by molar mass, not a printed value.

One may read the MIC as the lowest concentration that inhibits growth of the organism. A low value points to greater potency. Broadly, the AUC(0-t) is the area under the concentration-time curve up to a stated or last time point. A low value points to less exposure. As usually defined, the MRT is the average time that molecules of a dose stay in the body. One may read the clearance as a measure of how efficiently the substance is removed, as volume per time. Lower therefore signals a low capacity for elimination. The IC50 is the midpoint of a concentration-inhibition curve. Read a high IC50 as weaker potency. One may read the ED50 as the midpoint of the dose-response relation.

Data set [1] concerns Staphylococcus aureus. Put plainly: Antibacterial activity against Staphylococcus aureus […] after 16 hrs by agar dilution method. Format: functional. (In agar dilution the substance is mixed into plates at graded concentrations.)
Data set [2] has as its system Staphylococcus aureus. Put plainly: Antibacterial activity against methicillin-sensitive Staphylococcus aureus after 16 hrs by agar dilution method. Format: functional.
The subject of data set [3] is Staphylococcus aureus. Put plainly: Antibacterial activity against methicillin-resistant Staphylococcus aureus after 16 hrs by agar dilution method. In kind it is functional.
Data set [4] deals with Staphylococcus epidermidis. Description: Antibacterial activity against methicillin-sensitive Staphylococcus epidermidis after 16 hrs by agar dilution method. In kind it is functional.
A further data set deals with Streptococcus pneumoniae. Description: Antibacterial activity against penicillin-resistant Streptococcus pneumoniae after 16 hrs by agar dilution method. In kind it is functional.
The nature of data set [5]: AUC (0 to t) in Sprague-Dawley rat at 2 mg/kg, iv administered as cassette dosing. The following applies: plasma. Format: ADME, organism-based. On the set-up: dose 2 mg/kg, route intravenous.
Data set [6] can be described thus: Mean residence time in Sprague-Dawley rat at 2 mg/kg, iv administered as cassette dosing. In kind it is ADME, organism-based. On the set-up: dose 2 mg/kg, route intravenous. As to conditions: in vivo.
Data set [7] is described as follows: Elimination half life in Sprague-Dawley rat at 2 mg/kg, iv administered as cassette dosing. Format: ADME, organism-based. The following applies: in vivo, read-out: beta t1/2 (converted). On the set-up: dose 2 mg/kg, route intravenous.
The nature of data set [8]: Clearance in Sprague-Dawley rat at 2 mg/kg, iv administered as cassette dosing. Format: ADME, organism-based. Further details: dose 2 mg/kg, route intravenous. As to conditions: in vivo.
The nature of data set [9]: Volume of distribution at steady state in Sprague-Dawley rat at 2 mg/kg, iv administered as cassette dosing. In kind it is ADME, organism-based. On the set-up: dose 2 mg/kg, route intravenous. As to conditions: in vivo, read-out: Vdss.
Data set [10] deals with Staphylococcus epidermidis. Put plainly: Antibacterial activity against methicillin-resistant Staphylococcus epidermidis after 16 hrs by agar dilution method. In kind it is functional.
A further data set has as its target T1, Cytochrome P450 1A2 (Homo sapiens, UniProt P05177).
T1 sequence (P05177 whole entry): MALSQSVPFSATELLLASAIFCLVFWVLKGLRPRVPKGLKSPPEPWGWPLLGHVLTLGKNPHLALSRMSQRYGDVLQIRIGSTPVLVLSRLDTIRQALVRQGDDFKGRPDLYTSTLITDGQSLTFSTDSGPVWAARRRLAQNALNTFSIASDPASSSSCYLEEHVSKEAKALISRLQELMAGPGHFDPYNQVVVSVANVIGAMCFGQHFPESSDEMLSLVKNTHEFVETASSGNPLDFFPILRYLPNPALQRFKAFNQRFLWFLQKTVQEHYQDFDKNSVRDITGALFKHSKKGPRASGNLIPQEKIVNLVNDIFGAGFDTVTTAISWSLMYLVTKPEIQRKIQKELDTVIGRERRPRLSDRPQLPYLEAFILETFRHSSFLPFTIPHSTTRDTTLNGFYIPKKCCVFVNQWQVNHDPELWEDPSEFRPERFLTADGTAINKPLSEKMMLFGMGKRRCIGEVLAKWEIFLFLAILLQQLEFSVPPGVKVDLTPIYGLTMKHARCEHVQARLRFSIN
Description: Inhibition of CYP1A2 in human liver microsomes using phenacetin as substrate after 15 mins by LC/MS/MS analysis. In general terms: Liver microsomes are a subcellular fraction often used to study metabolism.

The next data set has as its target Cytochrome P450 2C9 (Homo sapiens, UniProt P11712). Description: Inhibition of CYP2C9 in human liver microsomes using tolbutamide as substrate after 15 mins by LC/MS/MS analysis.
The target in the next data set is Cytochrome P450 2C19 (Homo sapiens, UniProt P33261). Description: Inhibition of CYP2C19 in human liver microsomes using mephenytoin as substrate after 15 mins by LC/MS/MS analysis.
A further data set has as its target Cytochrome P450 2D6 (Homo sapiens, UniProt P10635). Put plainly: Inhibition of CYP2D6 in human liver microsomes using dextromethorphan as substrate after 15 mins by LC/MS/MS analysis.
Data set [11] deals with T2, Cytochrome P450 3A4 (Homo sapiens, UniProt P08684). Description: Inhibition of CYP3A4 in human liver microsomes using midazolam as substrate after 15 mins by LC/MS/MS analysis.
The target in data set [12] is T2, Cytochrome P450 3A4. Description: Inhibition of CYP3A4 in human liver microsomes using testosterone as substrate after 15 mins by LC/MS/MS analysis.
Data set [13] has as its system Staphylococcus aureus. Put plainly: Antibacterial activity against clinical isolate of methicillin-sensitive Staphylococcus aureus infected in iv dosed mouse administered 1 hr after infection for 4 days. In kind it is functional.
Data set [14] concerns Staphylococcus aureus. Put plainly: Antibacterial activity against clinical isolate of methicillin-sensitive Staphylococcus aureus infected in iv dosed mouse assessed as host survival administered 1 hr after infection for 4 days. In kind it is functional.
Data set [15] has as its system Staphylococcus aureus. Description: Antibacterial activity against of methicillin-sensitive Staphylococcus aureus ATCC 19636 infected in iv dosed mouse administered 1 hr after infection measured after 48 hrs. Format: functional.
Data set [16] deals with Staphylococcus aureus. Put plainly: Antibacterial activity against of methicillin-sensitive Staphylococcus aureus ATCC 19636 infected in iv dosed mouse assessed as host survival administered 1 hr after infection measured after 48 hrs. Format: functional. The following applies: ATCC 19636, iv.
Data set [17] has as its system Staphylococcus aureus. Put plainly: Antibacterial activity against of methicillin-resistant Staphylococcus aureus ATCC 33591 infected in iv dosed neutropenic mouse administered 1 hr after infection measured after 24 hrs. In kind it is functional.
Data set [18] concerns Staphylococcus aureus. Put plainly: Antibacterial activity against of methicillin-resistant Staphylococcus aureus ATCC 33591 infected in iv dosed neutropenic mouse assessed as host survival administered 1 hr after infection measured after 24 hrs. Format: functional. The following applies: ATCC 33591, iv.

Cytochrome P450 2C9, sequence (P11712 whole entry): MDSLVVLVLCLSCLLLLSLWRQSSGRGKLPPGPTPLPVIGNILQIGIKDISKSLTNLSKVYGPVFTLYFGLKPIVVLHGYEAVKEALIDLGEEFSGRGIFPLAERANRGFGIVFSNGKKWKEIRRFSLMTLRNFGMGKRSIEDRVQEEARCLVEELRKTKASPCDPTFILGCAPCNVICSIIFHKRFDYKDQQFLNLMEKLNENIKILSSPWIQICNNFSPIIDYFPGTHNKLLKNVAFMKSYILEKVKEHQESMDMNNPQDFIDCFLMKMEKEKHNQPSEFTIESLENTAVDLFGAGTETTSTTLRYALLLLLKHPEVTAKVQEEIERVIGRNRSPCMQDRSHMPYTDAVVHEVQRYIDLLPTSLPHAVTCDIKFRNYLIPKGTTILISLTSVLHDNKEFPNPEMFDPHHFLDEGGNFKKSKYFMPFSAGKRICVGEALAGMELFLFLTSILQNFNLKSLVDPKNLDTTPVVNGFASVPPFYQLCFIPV
Cytochrome P450 2D6, sequence (P10635 whole entry): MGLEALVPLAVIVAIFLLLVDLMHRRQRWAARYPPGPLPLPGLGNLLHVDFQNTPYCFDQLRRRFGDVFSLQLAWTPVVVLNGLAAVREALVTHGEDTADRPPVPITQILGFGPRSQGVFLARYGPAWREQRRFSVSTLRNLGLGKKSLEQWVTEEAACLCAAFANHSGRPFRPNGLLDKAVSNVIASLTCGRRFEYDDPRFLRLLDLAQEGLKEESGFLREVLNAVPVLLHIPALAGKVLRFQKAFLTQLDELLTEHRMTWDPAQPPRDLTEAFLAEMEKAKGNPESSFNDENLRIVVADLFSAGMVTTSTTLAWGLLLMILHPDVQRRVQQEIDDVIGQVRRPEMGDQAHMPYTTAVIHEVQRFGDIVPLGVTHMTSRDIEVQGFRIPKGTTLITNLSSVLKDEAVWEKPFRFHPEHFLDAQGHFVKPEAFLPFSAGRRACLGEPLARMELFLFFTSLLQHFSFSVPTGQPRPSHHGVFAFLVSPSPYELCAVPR
Cytochrome P450 2C19, sequence (P33261 whole entry): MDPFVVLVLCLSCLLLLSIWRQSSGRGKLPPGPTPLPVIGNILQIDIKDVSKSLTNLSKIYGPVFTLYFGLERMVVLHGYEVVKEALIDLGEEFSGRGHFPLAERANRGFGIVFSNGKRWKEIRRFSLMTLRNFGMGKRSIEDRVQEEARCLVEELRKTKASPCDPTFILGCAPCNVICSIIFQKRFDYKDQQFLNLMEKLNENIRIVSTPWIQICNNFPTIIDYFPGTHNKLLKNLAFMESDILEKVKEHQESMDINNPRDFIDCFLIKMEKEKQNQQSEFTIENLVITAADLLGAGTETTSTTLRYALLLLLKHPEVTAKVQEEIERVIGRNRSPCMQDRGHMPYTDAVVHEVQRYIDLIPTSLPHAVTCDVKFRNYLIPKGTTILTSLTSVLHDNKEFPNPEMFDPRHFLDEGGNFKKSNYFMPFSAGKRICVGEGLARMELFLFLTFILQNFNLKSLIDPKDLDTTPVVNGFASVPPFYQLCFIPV
T2 sequence (P08684 whole entry): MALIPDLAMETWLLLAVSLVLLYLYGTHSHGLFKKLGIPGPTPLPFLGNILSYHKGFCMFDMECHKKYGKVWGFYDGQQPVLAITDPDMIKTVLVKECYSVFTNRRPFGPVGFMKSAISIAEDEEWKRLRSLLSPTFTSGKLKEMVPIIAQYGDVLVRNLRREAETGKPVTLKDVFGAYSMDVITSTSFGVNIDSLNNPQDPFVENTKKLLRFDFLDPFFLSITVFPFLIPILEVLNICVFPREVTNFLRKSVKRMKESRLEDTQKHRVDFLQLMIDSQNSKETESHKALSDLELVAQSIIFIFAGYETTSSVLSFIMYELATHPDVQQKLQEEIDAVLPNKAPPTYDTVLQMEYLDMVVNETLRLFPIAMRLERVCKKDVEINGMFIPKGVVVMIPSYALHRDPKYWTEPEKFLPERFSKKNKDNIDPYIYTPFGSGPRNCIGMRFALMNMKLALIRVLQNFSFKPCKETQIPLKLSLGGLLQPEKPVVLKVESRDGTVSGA

For the molecule `C=C[C@]1(C)C[C@@H](OC(=O)CSc2cncc(NC(=O)[C@@H](N)CC(C)C)c2)[C@]2(C)[C@H](C)CC[C@]3(CCC(=O)[C@H]32)[C@@H](C)[C@@H]1O`, the MIC was found to be 0.031 mg/L (≈ 0.0517 µM) against Staphylococcus aureus [1]; 0.063 mg/L (≈ 0.105 µM) against Staphylococcus aureus [2]; 0.063 mg/L (≈ 0.105 µM) with Staphylococcus aureus [3]; 0.063 mg/L (≈ 0.105 µM) in [4]; 0.063 mg/L (≈ 0.105 µM) in the data set on Streptococcus pneumoniae; 0.063 mg/L (≈ 0.105 µM) in data set [10]. The molecule further yielded an exposure AUC(0-t) in [5] of 0.069 µg·h/mL. This molecule also registered an MRT in data set [6] of 21 min. The half-life in data set [7] is 37.8 min. The molecule further had a clearance in data set [8] of 29.3 L/h/kg. The Vd in data set [9] is 10.3 L/kg.
For `C=C[C@]1(C)C[C@@H](OC(=O)CSc2cncc(NC(=O)CN3CCCC(O)C3)c2)[C@]2(C)[C@H](C)CC[C@]3(CCC(=O)[C@H]32)[C@@H](C)[C@@H]1O` (stereo partly specified), the MIC (in the data set with Staphylococcus aureus [1]; against Staphylococcus aureus [2]; against Staphylococcus aureus [3]; in data set [4]; in the data set on Streptococcus pneumoniae; in [10]) was 0.063 mg/L (≈ 0.1 µM) in each case. In addition, the AUC(0-t) in [5] was 0.522 µg·h/mL. Also, the MRT in [6] was determined as 28.8 min. For the same molecule, in data set [7], the half-life was 40.2 min. The clearance in data set [8] was 3.9 L/h/kg. Further, in data set [9], the Vd worked out at 1.9 L/kg. The IC50 is more than 25 µM on Cytochrome P450 1A2; more than 25 µM against Cytochrome P450 2C9; 12.4 µM on Cytochrome P450 2C19; more than 25 µM against Cytochrome P450 2D6; 1.08 µM at Cytochrome P450 3A4 [11]; 1.24 µM against Cytochrome P450 3A4 [12].
Consider `C=C[C@]1(C)C[C@@H](OC(=O)CSc2cncc(NC(=O)CN3CCC(O)CC3)c2)[C@]2(C)[C@H](C)CC[C@]3(CCC(=O)[C@H]32)[C@@H](C)[C@@H]1O`, for which the MIC in the data set on Staphylococcus aureus [1] was 0.031 mg/L (≈ 0.0494 µM); in the data set with Staphylococcus aureus [2], 0.125 mg/L (≈ 0.199 µM); in the data set on Staphylococcus aureus [3], 0.063 mg/L (≈ 0.1 µM); in data set [4], 0.125 mg/L (≈ 0.199 µM); with Streptococcus pneumoniae, 0.063 mg/L (≈ 0.1 µM); in the data set on Staphylococcus aureus [13] it was 0.063 mg/L (≈ 0.1 µM). The results for the MIC (in the data set on Staphylococcus aureus [15]; in the data set on Staphylococcus aureus [17]; in data set [10]) were 0.063 mg/L (≈ 0.1 µM), 0.125 mg/L (≈ 0.199 µM) and 0.063 mg/L (≈ 0.1 µM), respectively. The same molecule came in with an AUC(0-t) in data set [5] of 0.65 µg·h/mL. The same molecule showed an MRT in data set [6] of 36.6 min. Also, the half-life in data set [7] was 40.2 min. In [8], this molecule showed a clearance of 3.2 L/h/kg. The Vd in data set [9] was 1.9 L/kg. For the same molecule, the median effective dose (ED50) in the data set on Staphylococcus aureus [14] turned out to be 16.7 mg/kg; in the data set with Staphylococcus aureus [16], 9.02 mg/kg; with Staphylococcus aureus [18], 3.13 mg/kg. For the same molecule, the IC50 against Cytochrome P450 1A2 is more than 25 µM; on Cytochrome P450 2C9, more than 25 µM; on Cytochrome P450 2C19, more than 25 µM; at Cytochrome P450 2D6, 11.2 µM; at Cytochrome P450 3A4 [11], 1.89 µM; at Cytochrome P450 3A4 [12], 1.63 µM.
Consider `C=C[C@]1(C)C[C@@H](OC(=O)CS[C@@H]2CC[C@@H](N)C[C@H]2O)[C@]2(C)[C@H](C)CC[C@]3(CCC(=O)[C@H]32)[C@@H](C)[C@@H]1O` [LEFAMULIN], for which the AUC(0-t) in [5] was 0.275 µg·h/mL. In data set [6], this molecule had an MRT of 228 min. Besides, in data set [7], the half-life is 264 min. The same molecule showed a clearance in [8] of 7.3 L/h/kg. The Vd in [9] is 27.6 L/kg. Inhibition of growth against Staphylococcus aureus [15] (MIC) required 0.031 mg/L (≈ 0.0611 µM). Moreover, the ED50 in the data set on Staphylococcus aureus [16] is 3.08 mg/kg. Also, the IC50 was more than 25 µM against Cytochrome P450 1A2; more than 25 µM on Cytochrome P450 2C9; more than 25 µM on Cytochrome P450 2C19; more than 25 µM on Cytochrome P450 2D6; 4.65 µM against Cytochrome P450 3A4 [11]; 4.43 µM against Cytochrome P450 3A4 [12].
Take `CC(=O)NC[C@H]1CN(c2ccc(N3CCOCC3)c(F)c2)C(=O)O1` [LINEZOLID]: the MIC against Staphylococcus aureus [13], against Staphylococcus aureus [15] and against Staphylococcus aureus [17] was 1 mg/L (≈ 2.96 µM) each time. For the same molecule, the ED50 worked out at 15.6 mg/kg with Staphylococcus aureus [14], 7.89 mg/kg with Staphylococcus aureus [16] and 9.39 mg/kg with Staphylococcus aureus [18].
Regarding `C=C[C@]1(C)C[C@@H](OC(=O)CS[C@@H]2C[C@H]3CC[C@@H](C2)N3C)[C@]2(C)[C@H](C)CC[C@]3(CCC(=O)[C@H]32)[C@@H](C)[C@@H]1O` [RETAPAMULIN], the MIC worked out at 0.125 mg/L (≈ 0.241 µM) against Staphylococcus aureus [1]; 0.063 mg/L (≈ 0.122 µM) against Staphylococcus aureus [2]; 0.063 mg/L (≈ 0.122 µM) with Staphylococcus aureus [3]; 0.063 mg/L (≈ 0.122 µM) in data set [4]; 0.063 mg/L (≈ 0.122 µM) with Streptococcus pneumoniae; 0.063 mg/L (≈ 0.122 µM) in data set [10].
